Tests used:
[1] = biological target: Prostaglandin G/H synthase 1 (Ovis aries) (UniProt P05979); assay: Inhibition of PGH synthase by measuring oxygen consumption with a Clark oxygen electrode at 100 uM; set-up: scale not given: the % may be the effect or the level left
[2] = biological target: Prostaglandin G/H synthase 1 (Ovis aries) (UniProt P05979); assay: Inhibition of PGH synthase was determined by measuring oxygen consumption with a Clark oxygen electrode at 25 uM; set-up: scale not given: the % may be the effect or the level left

Chain of Prostaglandin G/H synthase 1 (Ovis aries) (P05979 whole entry, looked up): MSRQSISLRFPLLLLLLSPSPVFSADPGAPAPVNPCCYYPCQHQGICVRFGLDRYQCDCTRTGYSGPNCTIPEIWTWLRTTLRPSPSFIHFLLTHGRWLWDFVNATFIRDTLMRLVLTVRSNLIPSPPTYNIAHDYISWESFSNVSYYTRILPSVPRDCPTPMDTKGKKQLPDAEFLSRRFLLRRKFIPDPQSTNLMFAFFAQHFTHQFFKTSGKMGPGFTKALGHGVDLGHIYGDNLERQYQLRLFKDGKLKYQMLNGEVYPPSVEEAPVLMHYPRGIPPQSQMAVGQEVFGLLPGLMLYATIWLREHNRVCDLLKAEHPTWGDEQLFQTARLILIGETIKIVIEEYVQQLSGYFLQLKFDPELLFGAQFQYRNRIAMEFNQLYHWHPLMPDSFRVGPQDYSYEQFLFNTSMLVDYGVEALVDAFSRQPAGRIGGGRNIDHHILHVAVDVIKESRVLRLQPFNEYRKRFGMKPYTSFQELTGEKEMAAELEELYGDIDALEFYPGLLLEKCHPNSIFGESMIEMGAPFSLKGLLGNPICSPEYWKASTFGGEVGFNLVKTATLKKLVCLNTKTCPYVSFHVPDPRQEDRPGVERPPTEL

Control [1] [%] | Control [2] [%] | SMILES
10 | 35 | O=C1C(CC#CCCl)C(=O)N(c2ccccc2)N1c1ccccc1
96 |  | O=C1C(=C/C=C/c2ccccc2)C(=O)N(c2ccccc2)N1c1ccccc1
5 | 23 | CC(C)(C#N)C1C(=O)N(c2ccccc2)N(c2ccccc2)C1=O
79 |  | O=C(CBr)NCCC1C(=O)N(c2ccccc2)N(c2ccccc2)C1=O
21 | 49 | CCC(C)=C1C(=O)N(c2ccccc2)N(c2ccccc2)C1=O
18 | 29 | CCCC=C1C(=O)N(c2ccccc2)N(c2ccccc2)C1=O
90 |  | O=C(CCl)NCCC1C(=O)N(c2ccccc2)N(c2ccccc2)C1=O
42 | 78 | O=C(NCCC1C(=O)N(c2ccccc2)N(c2ccccc2)C1=O)Oc1ccccc1
31 | 73 | CC(=C1C(=O)N(c2ccccc2)N(c2ccccc2)C1=O)c1ccccc1
63 | 89 | CC(C)=C1C(=O)N(c2ccccc2)N(c2ccccc2)C1=O

— ChEMBL document CHEMBL1123922
